From patent US20150105252A1, “SUBSTITUTED PYRAZOLES AS HERBICIDES” (E I DU PONT DE NEMOURS AND COMPANY, priority 2013, published 2015)

Tests used:
Test in all cases: Test F preemergence
green foxtail = type: in vivo, Setaria viridis
Source text: (§1) Seeds of plant species selected from corn (Zea mays), soybean (Glycine max), velvetleaf (Abutilon theophrasti), lambsquarters (Chenopodium album), wild poinsettia (Euphorbia heterophylla), pigweed, palmer (palmer pigweed, Amaranthus palmeri), common waterhemp (Amaranthus rudis), surinam grass (Brachiaria decumbens), large crabgrass (Digitaria sanguinalis), crabgrass, Brazil (Brazilian crabgrass, Digitaria horizontalis), fall panicum (Panicum dichotomiflorum), giant foxtail (Setaria faberii), green foxtail (Setaria viridis), goosegrass (Eleusine indica), johnsongrass (Sorghum halepense), common ragweed (Ambrosia elation), barnyardgrass (Echinochloa crus-galli), southern sandbur (Cenchrus echinatus), arrowleaf sida (Sida rhombifolia), Italian ryegrass (Lolium multiflorum), dayflower, VA (Virginia (VA) dayflower, Commelina virginica), field bindweed (Convolvulus arvensis), cocklebur (common cocklebur, Xanthium strumarium), morningglory (Ipomoea coccinea), nightshade (eastern black nightshade, Solanum ptycanthum), kochia (Kochia scoparia), yellow nutsedge (Cyperus esculentus), and hairy beggarticks (Bidens pilosa), were planted into a silt loam soil and treated preemergence with test chemicals formulated in a non-phytotoxic solvent mixture which included a surfactant.
(§2) At the same time, plants from these crop and weed species and also horseweed (Canada horseweed, Conyza canadensis), smartweed (ladysthumb smartweed, Polygonum persicaria), waterhemp_RES1, (ALS & Triazine resistant common waterhemp, Amaranthus rudis), and waterhemp_RES2, (ALS & HPPD resistant common waterhemp, Amaranthus rudis) were treated with postemergence applications of test chemicals formulated in the same manner. Plants ranged in height from 2 to 18 cm for postemergence treatments (1- to 4-leaf stage). Treated plants and controls were maintained in a greenhouse for 14 to 21 days, after which time all species were compared to controls and visually evaluated. Plant response ratings, summarized in Table F, are based on a scale of 0 to 100 where 0 is no effect and 100 is complete control. A dash (-) response means no test result.

yellow nutsedge = type: in vivo, Cyperus esculentus
Source text: as §1, §2

barnyardgrass = type: in vivo, Echinochloa crus-galli
Source text: as §1, §2

nightshade = type: in vivo, Solanum ptycanthum
Source text: as §1, §2

[1] = Preemergence, 31 g ai/ha, scale 0 to 100
[2] = Preemergence, 62 g ai/ha, scale 0 to 100
[3] = Preemergence, 125 g ai/ha, scale 0 to 100
[4] = preemergence, 8 g ai/ha, scale 0 to 100, 100 is complete control
[5] = preemergence, 16 g ai/ha, scale 0 to 100, 100 is complete control
[6] = Preemergence, 16 g ai/ha, scale 0 to 100
[7] = Preemergence, 250 g ai/ha, scale 0 to 100

Compound | Plant response rating, Green Foxtail (green foxtail; [1]) | Plant response rating, Green Foxtail (green foxtail; [2]) | Plant response rating, Green Foxtail (green foxtail; [3]) | Plant response rating, Green Foxtail (green foxtail; [4]) | Plant response rating, Green Foxtail (green foxtail; [5]) | Plant response rating, Yellow Nutsedge (yellow nutsedge; [1]) | Plant response rating, Yellow Nutsedge (yellow nutsedge; [2]) | Plant response rating, Yellow Nutsedge (yellow nutsedge; [3]) | Plant response rating, Yellow Nutsedge (yellow nutsedge; [4]) | Plant response rating, Yellow Nutsedge (yellow nutsedge; [5]) | Plant response rating, Barnyardgrass (barnyardgrass; [2]) | Plant response rating, Barnyardgrass (barnyardgrass; [3]) | Plant response rating, Barnyardgrass (barnyardgrass; [4]) | Plant response rating, Barnyardgrass (barnyardgrass; [5]) | Plant response rating, Nightshade (nightshade; [2]) | Plant response rating, Nightshade (nightshade; [3]) | Plant response rating, Nightshade (nightshade; [4]) | Plant response rating, Nightshade (nightshade; [5]) | Plant response rating, Barnyardgrass (barnyardgrass; [6]) | Plant response rating, Nightshade (nightshade; [6]) | other results
CCOc1cc(C(=O)NCC(F)(F)F)nn1Cc1ccnc(C(F)(F)F)c1 [Compound 104] | 100 | 100 | 100 | 5 | 60 | 25 | 60 | 75 | 0 | 0 | 100 | 100 | 10 | 20 | 100 | 100 | 0 | 65 |  |  | Plant response rating, Barnyardgrass (barnyardgrass; [1]): 50; Plant response rating, Nightshade (nightshade; [1]): 100
CCNC(=O)c1cc(CCCl)n(Cc2ccnc(C(F)(F)F)c2)n1 [Compound 179] | 20 | 20 | 70 | 0 |  | 0 | 10 | 60 | 0 |  | 20 | 50 | 0 |  | 85 | 100 | 0 |  |  |  | Plant response rating, Barnyardgrass (barnyardgrass; [1]): 15; Plant response rating, Nightshade (nightshade; [1]): 65
CCNC(=O)c1cc(CC)n(Cc2ccnc(C(F)(F)F)c2)n1 [Compound 196] |  | 75 | 100 | 0 | 0 |  | 20 | 50 | 0 | 0 | 10 | 65 | 0 | 0 | 75 | 95 | 0 | 35 | 0 | 50 | 
Cc1cc(C(=O)NC(C)C)nn1Cc1ccnc(C(F)(F)F)c1 [Compound 197] |  | 35 | 65 | 0 | 0 |  | 5 | 25 | 0 | 0 | 0 | 0 | 0 | 0 | 30 | 70 | 0 | 10 | 0 | 20 | 
CCc1cc(C(=O)NC2CC2)nn1Cc1ccnc(OCC(F)(F)F)c1 [Compound 200] |  | 5 | 60 |  | 0 |  | 0 | 25 |  | 0 | 25 | 20 |  | 0 | 20 | 75 |  |  | 15 | 0 | Plant response rating, Green Foxtail (green foxtail; [7]): 85; Plant response rating, Yellow Nutsedge (yellow nutsedge; [7]): 35; Plant response rating, Barnyardgrass (barnyardgrass; [7]): 50; Plant response rating, Nightshade (nightshade; [7]): 98
